Data: patent US9072741B2, “Methods of treating liver fibrosis and pre-cirrhosis with epidermal growth factor receptor inhibitors” (The General Hospital Corporation, priority 2009, dated 2015)

Tested on: DEN-induced liver fibrosis/pre-cirrhosis
Assay: DEN-treated rats, treatment begun at 8, 12 or 15 weeks: Ishak score
Type: in vivo, male Wistar rats
Method: FIG. 8B is a bar graph depicting Ishak scores in male Wistar rats receiving weekly intraperitoneal injections of 50 mg/kg DEN for 18 weeks and vehicle only (n=8) or 2 mg/kg gefitnib (n=8) beginning at either 8, 12, or 15 weeks. *, significant.
Male Wistar rats received weekly intraperitoneal injections of DEN (50 mg/kg) for 16 weeks. Rats received vehicle control or gefitinib (2 mg/kg) daily beginning at either 8, 12, or 15 weeks and lasting until 18 weeks. To assess the extent of liver disease at the start of each treatment, a subgroup of rats were sacrificed after a two-week washout of DEN and the liver was harvested and processed for analysis. Masson's trichrome stains of liver sections from each animal were analyzed by a blinded pathologist. After 8 weeks and 12 weeks of DEN administration, no macroscopic findings were observed on the surface of the liver (FIG. 8A). […] After 15 weeks of DEN administration, the rats had progressed to late stage cirrhosis which could be observed macroscopically on the surface of the liver (FIG. 8A) as well as microscopically. Rats receiving vehicle or gefitinib were sacrificed at 18 weeks after a two-week washout of DEN. The liver was harvested and processed for analysis. Masson's trichrome stains of liver sections from each animal were scored by a blinded pathologist by the method of Ishak. […]

COc1cc2ncnc(Nc3ccc(F)c(Cl)c3)c2cc1OCCCN1CCOCC1 [gefitinib, 4-Quinazolinamine, N-(3-chloro-4-fluorophenyl)-7-methoxy-6-(3-(4-morpholinyl)propoxy)]
progression of liver fibrosis/pre-cirrhosis (Ishak) (2 mg/kg daily beginning at 8 weeks until 18 weeks): inhibited the progression of liver fibrosis/pre-cirrhosis
progression of liver fibrosis/pre-cirrhosis (Ishak) (2 mg/kg daily beginning at 12 weeks until 18 weeks): inhibited the progression of liver fibrosis/pre-cirrhosis
